Laboratory results taken from US9796711B2, “Substituted pyrazolo[3,4-b]pyridin-6-carboxylic acids and method of use” (AbbVie S.àr.l., priority 2015, dated 2017).

Tests used:
ΔF508-CFTR [1] = target: T1, ΔF508-CFTR (Homo sapiens, UniProt P13569, DEL508-508); test: CFTR cell surface levels using HRP-tagged ΔF508-CFTR expressing CFBE cells, intrinsic corrector capacity; assay type: cell-based; conditions: for EC50: read-out: EC50
T1 construct: host or cells: CFBE41o-, doxycycline-inducible
Procedure, shortened: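 Here the cells express ΔF508-CFTR with horseradish peroxidase inserted in extracellular loop 4, so only rescued channel at the surface gives luminescent signal. Compounds act on their own, 20 h at the reduced temperature of 33 °C; values are percent activity relative to DMSO and a 3 μM corrector.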

ΔF508-CFTR [2] = target: T1, ΔF508-CFTR; test: CFTR cell surface levels using HRP-tagged ΔF508-CFTR expressing CFBE cells, in the presence of a co-corrector; assay type: cell-based; conditions: HRP-tagged ΔF508-CFTR expressing CFBE cells, in the presence of 3 μM co-corrector; for EC50: read-out: EC50
Procedure, shortened: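 Cells were seeded with 0.5 μg/mL doxycycline and held 68 h at 37 °C. Test compounds plus 3 μM co-corrector (final 0.1% DMSO) were then added for 20 h at 33 °C. Washed cells received HRP substrate, and luminescence was normalized between DMSO and 3 μM co-corrector controls.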

[3] = HRP-tagged ΔF508-CFTR expressing CFBE cells, intrinsic corrector capacity (no co-corrector), 33° C., 20 hours
[4] = HRP-tagged ΔF508-CFTR CFBE41o- cells, compounds alone (intrinsic corrector capacity), 20 hours at 33° C., positive control 3 μM corrector
[5] = HRP-tagged ΔF508-CFTR CFBE41o- cells, compounds alone (intrinsic corrector capacity), 20 hours at 33° C.

T1 sequence (P13569 with tags, fused parts or gaps DEL508-508): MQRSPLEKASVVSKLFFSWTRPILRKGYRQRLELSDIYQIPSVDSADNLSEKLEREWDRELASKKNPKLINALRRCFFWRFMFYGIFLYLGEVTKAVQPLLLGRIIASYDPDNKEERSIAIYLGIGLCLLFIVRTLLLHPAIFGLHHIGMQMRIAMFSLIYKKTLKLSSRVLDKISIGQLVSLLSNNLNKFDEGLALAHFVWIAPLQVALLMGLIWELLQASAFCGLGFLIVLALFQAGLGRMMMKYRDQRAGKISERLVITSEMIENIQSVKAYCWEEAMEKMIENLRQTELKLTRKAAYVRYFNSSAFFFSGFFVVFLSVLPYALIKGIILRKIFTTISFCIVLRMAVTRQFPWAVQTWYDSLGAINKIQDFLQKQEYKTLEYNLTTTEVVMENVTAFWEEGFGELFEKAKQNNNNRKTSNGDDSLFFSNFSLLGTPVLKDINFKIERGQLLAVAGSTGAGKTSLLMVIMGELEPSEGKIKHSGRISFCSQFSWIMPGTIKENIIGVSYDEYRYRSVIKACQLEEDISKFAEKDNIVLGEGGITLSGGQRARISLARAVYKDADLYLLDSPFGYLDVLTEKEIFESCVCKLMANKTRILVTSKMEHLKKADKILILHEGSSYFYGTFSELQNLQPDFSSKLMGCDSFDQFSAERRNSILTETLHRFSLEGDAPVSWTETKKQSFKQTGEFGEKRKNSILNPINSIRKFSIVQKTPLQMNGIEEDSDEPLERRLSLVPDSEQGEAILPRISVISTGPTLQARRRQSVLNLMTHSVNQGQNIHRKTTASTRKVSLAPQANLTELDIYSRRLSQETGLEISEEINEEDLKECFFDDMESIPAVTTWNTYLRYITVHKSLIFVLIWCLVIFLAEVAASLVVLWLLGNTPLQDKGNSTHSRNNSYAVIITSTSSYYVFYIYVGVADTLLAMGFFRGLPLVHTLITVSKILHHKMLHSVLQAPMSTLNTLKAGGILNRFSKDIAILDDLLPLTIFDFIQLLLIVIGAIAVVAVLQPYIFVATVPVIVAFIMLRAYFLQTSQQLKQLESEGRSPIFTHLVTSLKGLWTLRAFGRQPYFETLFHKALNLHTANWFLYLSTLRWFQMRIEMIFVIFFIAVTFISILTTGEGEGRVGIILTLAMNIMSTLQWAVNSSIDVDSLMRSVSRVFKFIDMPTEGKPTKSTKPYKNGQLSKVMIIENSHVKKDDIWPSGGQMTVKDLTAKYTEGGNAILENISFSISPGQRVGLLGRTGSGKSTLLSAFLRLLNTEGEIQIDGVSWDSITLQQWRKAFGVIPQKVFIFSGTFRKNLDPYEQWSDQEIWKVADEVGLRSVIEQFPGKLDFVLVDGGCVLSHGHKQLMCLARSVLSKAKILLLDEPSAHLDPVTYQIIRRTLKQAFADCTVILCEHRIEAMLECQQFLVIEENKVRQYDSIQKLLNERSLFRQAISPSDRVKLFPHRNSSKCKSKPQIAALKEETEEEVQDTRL

SMILES	% Activation (ΔF508-CFTR [1]; [3]) [%]	EC50 (ΔF508-CFTR [1]; [3]) [nM]	% Activation (ΔF508-CFTR [2]) [%]	EC50 (ΔF508-CFTR [2]) [nM]	% Activation (ΔF508-CFTR [1]; [4]) [%]	EC50 (ΔF508-CFTR [1]; [5]) [nM]
CC(C)(C)OC(=O)N1CCC(Oc2nn(-c3ccccc3)c3nc(C(=O)O)cc(-c4ccc(N5CCC(C#N)CC5)nc4)c23)C1 (stereo not drawn) [compound 552, 3-{[1-(tert-butoxycarbonyl)pyrrolidin-3-yl]oxy}-4-[6-(4-cyanopiperidin-1-yl)pyridin-3-yl]-1-phenyl-1H-pyrazolo[3,4-b]pyridine-6-carboxylic acid]	156.1	370	396.65	396	–	–
CS(=O)(=O)N1CCC(F)(COc2cc(C(=O)O)nc3c2c(C2CCC2)nn3-c2ccccc2)CC1 [compound 626, 3-cyclobutyl-4-{[4-fluoro-1-(methanesulfonyl)piperidin-4-yl]methoxy}-1-phenyl-1H-pyrazolo[3,4-b]pyridine-6-carboxylic acid]	223.1	2710	398.15	1010	–	–
CC(C)(O)c1nn(-c2ccccc2)c2nc(C(=O)O)cc(-c3ccc(N4CCOCC4)cc3)c12 [compound 63, 3-(2-hydroxypropan-2-yl)-4-[4-(morpholin-4-yl)phenyl]-1-phenyl-1H-pyrazolo[3,4-b]pyridine-6-carboxylic acid]	–	–	294.35	3340	108.18	3340
Cc1cccc(-n2nc(C(C)C)c3c(-c4ccc(N5CCOCC5)cc4)cc(C(=O)O)nc32)c1 [compound 20, 1-(3-methylphenyl)-4-[4-(morpholin-4-yl)phenyl]-3-(propan-2-yl)-1H-pyrazolo[3,4-b]pyridine-6-carboxylic acid]	–	–	450.9	371	199.98	522
O=C(O)c1cc(OC2CC3(COC3)C2)c2c(C3CCC3)nn(-c3ccccc3)c2n1 [compound 495, 3-cyclobutyl-4-[(2-oxaspiro[3.3]heptan-6-yl)oxy]-1-phenyl-1H-pyrazolo[3,4-b]pyridine-6-carboxylic acid]	95.96	1110	235.15	307	–	–
CC(C)c1nn(-c2cccc(N3CCC3)c2)c2nc(C(=O)O)cc(-c3ccc(N(C)C4CCOCC4)cc3)c12 [compound 240, 1-[3-(azetidin-1-yl)phenyl]-4-{4-[methyl(oxan-4-yl)amino]phenyl}-3-(propan-2-yl)-1H-pyrazolo[3,4-b]pyridine-6-carboxylic acid]	–	–	609.05	516	380.6	588
Cc1nn(-c2ccccc2)c2nc(C(=O)O)cc(N3CCC4(CC3)CN(C)C(=O)CO4)c12 [compound 288, 3-methyl-4-(4-methyl-3-oxo-1-oxa-4,9-diazaspiro[5.5]undecan-9-yl)-1-phenyl-1H-pyrazolo[3,4-b]pyridine-6-carboxylic acid]	–	–	128	7500	20.49	7500
O=C(O)c1cc(N2CCC(CN3CCN4C[C@@H](F)C[C@H]4C3)CC2)c2c(C3CCC3)nn(-c3ccccc3)c2n1 [compound 838, 3-cyclobutyl-4-(4-{[(7S,8aS)-7-fluorohexahydropyrrolo[1,2-a]pyrazin-2(1H)-yl]methyl]piperidin-1-yl)-1-phenyl-1H-pyrazolo[3,4-b]pyridine-6-carboxylic acid]	240.3	269	411.8	115	–	–
CC(C)c1nn(C2CCCCC2)c2nc(C(=O)O)cc(-c3ccc(N4CCOCC4)cc3)c12 [compound 54, 1-cyclohexyl-4-[4-(morpholin-4-yl)phenyl]-3-(propan-2-yl)-1H-pyrazolo[3,4-b]pyridine-6-carboxylic acid]	–	–	392.6	376	167.9	763
COC1CCN(c2cc(C(=O)O)nc3c2c(C(C)C)nn3-c2ccc(F)cc2)CC1 [compound 393, 1-(4-fluorophenyl)-4-(4-methoxypiperidin-1-yl)-3-(propan-2-yl)-1H-pyrazolo[3,4-b]pyridine-6-carboxylic acid]	–	–	454.3	314	258.8	558
Cc1nn(-c2ccccc2)c2nc(C(=O)O)cc(OCC3(C)COC3)c12 [compound 375, 3-methyl-4-[(3-methyloxetan-3-yl)methoxy]-1-phenyl-1H-pyrazolo[3,4-b]pyridine-6-carboxylic acid]	–	–	184.1	1670	36.645	3340
O=C(O)c1cc(-c2ccc(N3CCOCC3)cc2)c2c(C3CCC3)nn(-c3ccc(C(F)(F)F)cc3)c2n1 [compound 356, 3-cyclobutyl-4-[4-(morpholin-4-yl)phenyl]-1-[4-(trifluoromethyl)phenyl]-1H-pyrazolo[3,4-b]pyridine-6-carboxylic acid]	–	–	331.9	428	152.8	489
COCC1(F)CCCN(c2cc(C(=O)O)nc3c2c(C2CCC2)nn3-c2ccccc2)C1 (stereo not drawn) [compound 595, 3-cyclobutyl-4-[3-fluoro-3-(methoxymethyl)piperidin-1-yl]-1-phenyl-1H-pyrazolo[3,4-b]pyridine-6-carboxylic acid]	162.8	347	383.8	207	–	–
O=C(O)c1cc(N2CCC(N3CCOCC3)CC2)c2c(C3CCC3)nn(-c3ccc(F)c(F)c3)c2n1 [compound 907, 3-cyclobutyl-1-(3,4-difluorophenyl)-4-[4-(morpholin-4-yl)piperidin-1-yl]-1H-pyrazolo[3,4-b]pyridine-6-carboxylic acid]	270.7	260	483.65	183	–	–
Cc1nn(-c2ccccc2)c2nc(C(=O)O)cc(N3CCN4C(=O)OCC4C3)c12 (stereo not drawn) [compound 301, 3-methyl-4-(3-oxotetrahydro-3H-[1,3]oxazolo[3,4-a]pyrazin-7(1H)-yl)-1-phenyl-1H-pyrazolo[3,4-b]pyridine-6-carboxylic acid]	–	–	117.35	7500	12.64	7500
Cc1nn(-c2ccccc2)c2nc(C(=O)O)cc(N3CC[C@H](F)C3)c12 [compound 300, 4-[(3S)-3-fluoropyrrolidin-1-yl]-3-methyl-1-phenyl-1H-pyrazolo[3,4-b]pyridine-6-carboxylic acid]	–	–	165	2510	41.065	2510
CCN(CC)CCCOc1cc(C(=O)O)nc2c1c(C1CCC1)nn2-c1ccccc1 [compound 624, 3-cyclobutyl-4-[3-(diethylamino)propoxy]-1-phenyl-1H-pyrazolo[3,4-b]pyridine-6-carboxylic acid]	98.14	3330	281.85	2210	–	–
CN1CCC[C@]12C[C@@H](Oc1cc(C(=O)O)nc3c1c(C1CCC1)nn3-c1ccccc1)C2 [compound 645, 3-cyclobutyl-4-{[(2s,4r)-5-methyl-5-azaspiro[3.4]octan-2-yl]oxy}-1-phenyl-1H-pyrazolo[3,4-b]pyridine-6-carboxylic acid]	111.55	1070	270.05	409	–	–
